Source: US20220296676A1 (priority 2020, published 2022)

Tests used:
in vitro [1] = conditions: human
[2] = test system: human coronavirus (HCoV) 229E; test: microbe, parasite or virus in culture; conditions: MRC5, 72 h
in vitro [3] = conditions: human; remark: listed apart in the source

CCC(CC)COC(=O)[C@H](C)N[P@](=O)(OC[C@H]1O[C@@](C#N)(c2ccc3c(N)ncnn23)[C@H](O)[C@@H]1O)Oc1ccccc1 [Remdesivir, reference compound]
CC50 (in vitro [1]): 49.2 µM | EC50 [2]: 0.03 µM

C/C=C/C[C@@H](C)[C@@H](O)[C@H]1C(=O)N[C@@H](CC)C(=O)N(C)[C@H](SCCN(C)C)C(=O)N(C)[C@@H](CC(C)(C)O)C(=O)N[C@@H](C(C)C)C(=O)N(C)[C@@H](CC(C)C)C(=O)N[C@@H](C)C(=O)N[C@H](C)C(=O)N(C)[C@@H](CC(C)C)C(=O)N(C)[C@@H](CC(C)C)C(=O)N(C)[C@@H](C(C)C)C(=O)N1C [WS-635]
CC50 at 3 days (in vitro [1]): 46.8 µM | EC50 [2]: 5.16 µM | CC50 (in vitro [3]): > 100 µM
